Experimental data from patent publication US20020068838A1, “AROMATIC AMIDES, THEIR PREPARATION PROCESS AND THEIR USE AS PESTICIDES” (priority 1997, published 2002).

Experiments:
Type in all cases: in vivo
Heliothis virescens = assay: Study on Heliothis virescens (artificial medium surface treatment); conditions: starting from a dose of 300 ppm; neonate larva; after seven days; 25 C
Description: The product was dissolved at the desired concentration in an acetone-water mixture (50-50). 50 μl of solution were deposited on the surface of a small well containing approximately 2 grams of plant-based artificial medium. One neonate larva of Heliothis virescens was then introduced into each well, which was sealed with a sheet of cellophane. The tests were kept at a temperature of 25 C., with a photoperiod of twelve hours. The mortality of the larvae was checked after seven days.

Spodoptera littoralis = assay: Study on Spodoptera littoralis (haricot leaf dip test); conditions: starting from a dose of 300 ppm, after seven days, 25 C
Description: The product was dissolved at the desired concentration in an acetone-water mixture (50-50). Haricot leaves (Phaseolus vulgaris, var. […]) were immersed for five seconds in the solution, then left to dry in a Petri dish for one hour. Ten larvae of Spodoptera littoralis were then added to each dish. These were kept at a temperature of 25 C., with a photoperiod of twelve hours. After seven days, the mortality of the larvae was checked and the foliar surface consumed was evaluated.

Phaedon cochleariae = assay: Study on Phaedon cochleariae (foliar disk dip test, Chinese cabbage); conditions: starting from a dose of 300 ppm; adults; after seven days; 25 C
Description: The product was dissolved at the desired concentration in an acetone-water mixture (50-50). Foliar disks of Chinese cabbage (Brassica pekinensis) were immersed for five seconds in the solution, then left to dry for one hour. Ten adults (a mixture of males and females) were added into a Petri dish containing a foliar disk each. These were kept at a temperature of 25 C., with a photoperiod of twelve hours. After seven days, the mortality of the insects was checked and the foliar surface consumed was evaluated.

[1] = tested on: Leptinotarsa decemlineata; assay: Study on Leptinotarsa decemlineata (aubergine foliar disk dip test); conditions: starting from a dose of 300 ppm; larvae (3rd stage); after four days; 25 C
Description: The product was dissolved at the desired concentration in an acetone-water mixture (50-50). Foliar disks of aubergine were immersed in the solution, then left to dry for one hour. Ten larvae (3rd stage) were added into a Petri dish each containing a foliar disk. These were kept at a temperature of 25 C. After four days, the mortality of the insects was checked.

Structure (SMILES) | activity (mortality of the larvae) (Heliothis virescens) | activity (mortality of the larvae and foliar surface consumed) (Spodoptera littoralis) | activity (mortality of the insects and foliar surface consumed) (Phaedon cochleariae) | activity (mortality of the insects) [1]
Cc1ccccc1NC(=O)c1ccc(CC(F)Cc2ccc(Cl)c(Cl)c2)cc1 (stereo not drawn) [Example 1, 4-[3-(3,4-dichlorophenyl)-2-fluoropropyl]-N-(2-methylphenyl)-benzamide] | good activity | good activity |  | 
Cc1ccccc1NC(=O)c1ccc(CC(F)=Cc2ccc(Cl)c(Cl)c2)cc1 [Example 2] | good activity | good activity |  | 
CC(=CCc1ccc(C(=O)Nc2ccccc2C)cc1)c1ccc(Cl)c(Cl)c1 [Example 5, 4-[3-(3,4-dichlorophenyl)-2-butenyl]-N-(2-methylphenyl)-benzamide] | good activity | good activity |  | 
Cc1ccccc1NC(=O)c1ccc(CC=C(Cl)c2ccc(Cl)c(Cl)c2)cc1 [Example 6, 4-[3-chloro-3-(3,4-dichlorophenyl)-2-propenyl]-N-(2-methylphenyl)-benzamide] | good activity | good activity | good activity | very interesting activity
Cc1ccccc1NC(=O)c1ccc(CC=Cc2ccc(Cl)c(Cl)c2)cc1 [Example 7, 4-[3-(3,4-dichlorophenyl)-2-propenyl]-N-(2-methylphenyl)-benzamide] | good activity | good activity |  | 
